The source of these data is patent US20240199587A1, “HETEROCYCLIC COMPOUNDS” (Hoffmann-La Roche Inc., priority 2021, published 2024).

Structures are written as SMILES.

This test addresses T1, MAGL (Homo sapiens, UniProt Q99685).
T1 sequence (Q99685 1-303): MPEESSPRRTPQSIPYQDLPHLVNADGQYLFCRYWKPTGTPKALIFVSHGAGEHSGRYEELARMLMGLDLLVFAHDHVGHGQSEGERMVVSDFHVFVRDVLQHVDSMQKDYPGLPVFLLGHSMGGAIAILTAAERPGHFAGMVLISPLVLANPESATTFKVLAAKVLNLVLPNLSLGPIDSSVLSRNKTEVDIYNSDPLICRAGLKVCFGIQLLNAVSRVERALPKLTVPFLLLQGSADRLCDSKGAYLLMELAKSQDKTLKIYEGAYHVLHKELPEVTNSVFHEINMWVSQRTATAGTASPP
In words: 2-AG assay (MAGL inhibitory activity, hydrolysis of 2-arachidonoylglycerol to arachidonic acid followed by mass spectrometry). The following applies: 8 μM 2-arachidonoylglycerol, 15 min pre-incubation, 30 min incubation at RT, RapidFire MS readout. Format: biochemical. The gist of the method:
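Human MAGL ([…] final) pre-incubated 15 min at RT with compound in 50 mM TRIS, 1 mM EDTA, 0.01% Tween-20, 2.5% DMSO; 8 μM 2-AG then added for 30 min at RT. Acetonitrile quench with d8-arachidonic acid; arachidonic acid measured by RapidFire SPE–MS/MS, activity from arachidonic acid/d8 ratio.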
For orientation: IC50 means the midpoint of a concentration-inhibition curve. A higher IC50 goes with weaker potency in that assay. As to `O=C(N1CC(OCc2ccc(Cl)cc2F)C1)N1CC2(CC(n3cnc(C4CC4)c3)C2)C1` [Example 108, [3-[(4-chloro-2-fluoro-phenyl)methoxy]azetidin-1-yl]-[6-(4-cyclopropylimidazol-1-yl)-2-azaspiro[3.3]heptan-2-yl]methanone], the IC50 was 25 nM.

For `O=C(N1CC(OCc2ccc(F)cc2Cl)C1)N1CC2(CC(n3cnc(C4CC4)c3)C2)C1` [Example 109, [3-[(2-chloro-4-fluoro-phenyl)methoxy]azetidin-1-yl]-[6-(4-cyclopropylimidazol-1-yl)-2-azaspiro[3.3]heptan-2-yl]methanone], the half-maximal inhibitory concentration (IC50) was 63.5 nM.

`O=C(N1CC(OCc2ccc(F)cc2F)C1)N1CC2(CC(n3cnc(C4CC4)c3)C2)C1` [Example 110, [6-(4-cyclopropylimidazol-1-yl)-2-azaspiro[3.3]heptan-2-yl]-[3-[(2,4-difluorophenyl)methoxy]azetidin-1-yl]methanone] yielded a half-inhibitory concentration (IC50) of 65.8 nM.

In turn, `N#Cc1ccc(OC2CC3(C2)CN(C(=O)N2CC4(CC(n5cnc(C6CC6)n5)C4)C2)C3)c(F)c1` [Example 111, 4-[[2-[6-(3-cyclopropyl-1,2,4-triazol-1-yl)-2-azaspiro[3.3]heptane-2-carbonyl]-2-azaspiro[3.3]heptan-6-yl]oxy]-3-fluoro-benzonitrile] showed an IC50 of 4.3 nM.

`O=C(N1C[C@H]2C[C@H](Oc3ccc(OC(F)F)cc3F)C[C@H]2C1)N1CC2(CC(n3cnc(C4CC4)n3)C2)C1` [Example 112, [6-(3-cyclopropyl-1,2,4-triazol-1-yl)-2-azaspiro[3.3]heptan-2-yl]−[rac-(3aS,6aR)-5-[4-(difluoromethoxy)-2-fluoro-phenoxy]-3,3a,4,5,6,6a-hexahydro-1H-cyclopenta[c]pyrrol-2-yl]methanone] registered a half-maximal inhibitory concentration (IC50) of 6 nM. The IC50 values of the last two compounds are within 1.5-fold of each other.

Turning to `O=C(N1C[C@H]2C[C@H](Oc3ccc(C(F)(F)F)cc3)C[C@H]2C1)N1CC2(CC(n3cnc(C4CC4)n3)C2)C1` [Example 113, [6-(3-cyclopropyl-1,2,4-triazol-1-yl)-2-azaspiro[3.3]heptan-2-yl]-[rac-(3aS,6aR)-5-[4-(trifluoromethyl)phenoxy]-3,3a,4,5,6,6a-hexahydro-1H-cyclopenta[c]pyrrol-2-yl]methanone], 4.8 nM corresponded to half-maximal inhibition (IC50).

The compound `N#Cc1cc(C(F)(F)F)ccc1O[C@H]1C[C@@H]2CN(C(=O)N3CC4(CC(n5cnc(C6CC6)n5)C4)C3)C[C@@H]2C1` [Example 114, 2-[[rac-(3aS,6aR)-2-[6-(3-cyclopropyl-1,2,4-triazol-1-yl)-2-azaspiro[3.3]heptane-2-carbonyl]-3,3a,4,5,6,6a-hexahydro-1H-cyclopenta[c]pyrrol-5-yl]oxy]-5-(trifluoromethyl) benzonitrile] showed a half-inhibitory concentration (IC50) of 10.4 nM.

Consider `O=C(N1C[C@H]2C[C@H](Oc3ccc(C(F)(F)F)c(Cl)c3)C[C@H]2C1)N1CC2(CC(n3cnc(C4CC4)n3)C2)C1` [Example 115, [6-(3-cyclopropyl-1,2,4-triazol-1-yl)-2-azaspiro[3.3]heptan-2-yl]-[rac-(3aS,6aR)-5-[3-chloro-4-(trifluoromethyl)phenoxy]-3,3a,4,5,6,6a-hexahydro-1H-cyclopenta[c]pyrrol-2-yl]methanone], for which the half-inhibitory concentration (IC50) amounted to 2.4 nM. Against the preceding compound, the IC50 is about 4.3-fold lower.

`COc1cc(C(F)(F)F)ccc1O[C@H]1C[C@@H]2CN(C(=O)N3CC4(CC(n5cnc(C6CC6)n5)C4)C3)C[C@@H]2C1` [Example 116, [6-(3-cyclopropyl-1,2,4-triazol-1-yl)-2-azaspiro[3.3]heptan-2-yl]-[rac-(3aS,6aR)-5-[2-methoxy-4-(trifluoromethyl)phenoxy]-3,3a,4,5,6,6a-hexahydro-1H-cyclopenta[c]pyrrol-2-yl]methanone] gave an IC50 of 2.7 nM.

For `O=C(N1C[C@H]2C[C@H](Oc3ccc(C(F)(F)F)c(F)c3)C[C@H]2C1)N1CC2(CC(n3cnc(C4CC4)n3)C2)C1` [Example 117, [6-(3-cyclopropyl-1,2,4-triazol-1-yl)-2-azaspiro[3.3]heptan-2-yl]-[rac-(3aS,6aR)-5-[3-fluoro-4-(trifluoromethyl)phenoxy]-3,3a,4,5,6,6a-hexahydro-1H-cyclopenta[c]pyrrol-2-yl]methanone], the half-maximal inhibitory concentration (IC50) stood at 3.5 nM.

The compound `N#Cc1cc(O[C@H]2C[C@@H]3CN(C(=O)N4CC5(CC(n6cnc(C7CC7)n6)C5)C4)C[C@@H]3C2)ccc1C(F)(F)F` [Example 118, 5-[rac-(3aS,6aR)-2-[6-(3-cyclopropyl-1,2,4-triazol-1-yl)-2-azaspiro[3.3]heptane-2-carbonyl]-3,3a,4,5,6,6a-hexahydro-1H-cyclopenta[c]pyrrol-5-yl]oxy]-2-(trifluoromethyl) benzonitrile] displayed a concentration for half-maximal inhibition (IC50) of 4.7 nM.

In turn, `O=C(N1C[C@H]2C[C@H](Oc3ccc(F)c(F)c3)C[C@H]2C1)N1CC2(CC(n3cnc(C4CC4)n3)C2)C1` [Example 119, [6-(3-cyclopropyl-1,2,4-triazol-1-yl)-2-azaspiro[3.3]heptan-2-yl]-[rac-(3aS,6aR)-5-(3,4-difluorophenoxy)-3,3a,4,5,6,6a-hexahydro-1H-cyclopenta[c]pyrrol-2-yl]methanone] came in with an IC50 of 7.4 nM.

Take `O=C(N1C[C@H]2C[C@H](Oc3ccc(F)c(C(F)(F)F)c3)C[C@H]2C1)N1CC2(CC(n3cnc(C4CC4)n3)C2)C1` [Example 120, [6-(3-cyclopropyl-1,2,4-triazol-1-yl)-2-azaspiro[3.3]heptan-2-yl]-[rac-(3aS,6aR)-5-[4-fluoro-3-(trifluoromethyl)phenoxy]-3,3a,4,5,6,6a-hexahydro-1H-cyclopenta[c]pyrrol-2-yl]methanone]: the IC50 was determined as 1 nM.

On to `O=C(N1C[C@H]2C[C@H](Oc3ccc(F)cc3F)C[C@H]2C1)N1CC2(CC(n3cnc(C4CC4)n3)C2)C1` [Example 121, [6-(3-cyclopropyl-1,2,4-triazol-1-yl)-2-azaspiro[3.3]heptan-2-yl]-[rac-(3aS,6aR)-5-(2,4-difluorophenoxy)-3,3a,4,5,6,6a-hexahydro-1H-cyclopenta[c]pyrrol-2-yl]methanone], for which inhibition was half-maximal at 5.4 nM (IC50).

Regarding `COc1cc(F)ccc1O[C@H]1C[C@@H]2CN(C(=O)N3CC4(CC(n5cnc(C6CC6)n5)C4)C3)C[C@@H]2C1` [Example 122, [6-(3-cyclopropyl-1,2,4-triazol-1-yl)-2-azaspiro[3.3]heptan-2-yl]-[rac-(3aS,6aR)-5-(4-fluoro-2-methoxy-phenoxy)-3,3a,4,5,6,6a-hexahydro-1H-cyclopenta[c]pyrrol-2-yl]methanone], the IC50 came out at 7.3 nM.

For the compound `CS(=O)(=O)c1cc(F)ccc1O[C@H]1C[C@@H]2CN(C(=O)N3CC4(CC(n5cnc(C6CC6)n5)C4)C3)C[C@@H]2C1` [Example 123, [6-(3-cyclopropyl-1,2,4-triazol-1-yl)-2-azaspiro[3.3]heptan-2-yl]-[rac-(3aS,6aR)-5-(4-fluoro-2-methylsulfonyl-phenoxy)-3,3a,4,5,6,6a-hexahydro-1H-cyclopenta[c]pyrrol-2-yl]methanone], the IC50 stood at 41.9 nM.

Regarding `O=C(N1C[C@H]2C[C@H](Oc3c(F)cc(F)cc3F)C[C@H]2C1)N1CC2(CC(n3cnc(C4CC4)n3)C2)C1` [Example 124, [6-(3-cyclopropyl-1,2,4-triazol-1-yl)-2-azaspiro[3.3]heptan-2-yl]-[rac-(3aS,6aR)-5-(2,4,6-trifluorophenoxy)-3,3a,4,5,6,6a-hexahydro-1H-cyclopenta[c]pyrrol-2-yl]methanone], 4 nM corresponded to half-maximal inhibition (IC50).
